Several values for one entry are separate records, joined by “and”; a condition that tells them apart may be missing. Equal values may be shown once. Marks after values point to notes of the source that are not given here.
Legend:
[1] = Molar extinction coefficient of the photosensitizer; assay type: physicochemical; set-up: Molar extinction coefficient: unit not given here; details: for Peak extinction coefficient: in M-1 cm-1 (unit assumed)
[2] = tested on: blood vessels and tissue within region of irradiation; assay: Quantitation of FITC-Dextran or TRITC-Dextran fluorescence in blood vessels and tissue (method of Brunner et al.); assay type: in vivo, mice of strain C3H; details: for Fluorecence intensity, Tissue, Baseline / Fluorecence intensity, Vessel, Baseline: prior to photodynamic treatment and probe
Procedure: At varying time points following the photodynamic activation of MRV6401 or SnET2, a total volume of 0.1 ml of either FITC-Dextran or TRITC-Dextran (obtained from Sigma Scientific, PO Box 14508, St. Louis, Mo., 63178, USA) was administered via the i.v. tail vein route. […] No. FD-2000s) or of molecular weight 150 kD (Sigma Cat. No. FD-150s), and the TRITC-Dextran solution was of molecular weight 155 kD (Sigma Cat. No. T1287). Prior to use, the dextrans were suspended in sterile 5% dextrose in water to a final concentration of 5% weight:volume. In all cases, a total volume of 0.1 ml of the […] solution was administered. The time of administration and the molecular weight of the various dextrans that were injected were as described in Table 6. In some animals the vascular permeability was determined 1-60 minutes following the completion of light irradiation using a dextran probe labeled with either FITC or TRITC, which was then followed 24 hours later by determination using a probe labeled with the other (opposite) fluorescent molecule. That is, if FITC was used immediately following irradiation, TRITC was used 24 hours later, and vice versa. To visualize the fluorescence emitted from the FITC-Dextrans, the Leitz Ploemopak L2 cube (Cat. No. 513-420, E. Leitz Inc., Rockleigh, N.J., 07647, USA) was used. This filter cube was fitted with a BP 450-490 (450 nm-490 nm band pass) excitation filter, the RKP 510 long pass dichroic mirror and a BP 525/20 (525±10 nm) band pass barrier filter. To visualize the fluorescence emitted from the TRITC-Dextrans, the Leitz Ploemopak N2 cube (Cat. No. 513-609, E. Leitz Inc., Rockleigh, N.J., 07647, USA) was used. This filter cube was fitted with a BP 530-560 (530 nm-560 nm band pass) excitation filter, the RKP 580 long pass dichroic mirror and the LP 580 (580 nm long pass) barrier filter. The spectral characteristics of the filters in the L2 and N2 cubes were such that in animals that were injected with both FITC- and TRITC-Dextran (see Table 6), there was no fluorescence “bleed-through” from the other fluorophore. That is, when visualizing TRITC-Dextran there was no fluorescent signal from FITC-Dextran that was present in the field. Similarly, when visualizing FITC-Dextran, there was no fluorescent signal from TRITC-Dextran that was present in the field. The quantitation of the level of either FITC-Dextran or TRITC-Dextran fluorescence in various regions of the chambers was undertaken using a minor modification of a previously described method [J. Brunner, F. Krummenaeur and H -A Lehr, “Quantification of video-taped images in microcirculation research using inexpensive imaging software” (Adobe Photoshop), Microcirculation, Vol. 7, pp 103-107, 2000]. In the studies described by Brunner et al., the imaging software utilized to quantitate the levels of fluorescence intensity in defined regions of interest within the window chamber was Adobe Photoshop. The software utilized for the studies described below was Image-Pro Plus (Media Cybernetics, 8484 Georgia Avenue, Silver Spring, Md. 20910, USA). In all other respects, the analysis undertaken below was the same as that described by Brunner et al. The level of fluorescence that was determined in both intra-vascular and extra-vascular regions using this method was directly proportional to the amount of the fluorescent labeled dextran in that region (Brunner et al., 2000).

[3] = 155 kD TRITC-Dextran, SnET2 0.75 mg/kg i.v., green 530 nm-560 nm 225 J/cm^2, time after TRITC-Dextran administration, region of irradiation, 0.75 mg/kg
[4] = Animal #12, 2,000 kD FITC-Dextran, MRV6401 0.05 mg/kg i.v., red 660 nm-680 nm 8 J/cm^2
[5] = Animal #12, 2,000 kD FITC-Dextran, MRV6401 0.05 mg/kg i.v., red 660 nm-680 nm 8 J/cm^2, time after Dextran administration
[6] = Animal #13, 155 kD TRITC-Dextran, MRV6401 0.05 mg/kg i.v., red 660 nm-680 nm 8 J/cm^2
[7] = Animal #13, 155 kD TRITC-Dextran, MRV6401 0.05 mg/kg i.v., red 660 nm-680 nm 8 J/cm^2, time after Dextran administration

Compound: CCOC(=O)C1=Cc2c3nc(cc4nc(cc5[n-]c(cc6[n-]c2c(C)c6CC)c(C)c5CC)C(C)=C4CC)[C@@H](C)[C@]13CC.[Cl-].[Cl-].[Sn] (racemic) [SnET2, tin ethyl etiopurpurin]
- Peak extinction coefficient ([1]; at 437 nm): 165,456
- Peak extinction coefficient ([1]; at 661 nm): 52,552
- Absorbance at activation wavelength relative to peak spectral absorbance ([1]; green 530 nm-560 nm): less than 5%
- Molar extinction coefficient ([1]; green wavelength band 530 nm-560 nm): 4312
- Fluorecence intensity, Tissue, Baseline ([2]; 155 kD TRITC-Dextran, SnET2 0.75 mg/kg i.v., green 530 nm-560 nm 225 J/cm^2, mean ± 1 SD of three readings, 0.75 mg/kg): 30.5 ± 1.4 and 26.5 ± 0.2
- Fluorecence intensity, Tissue, 8 min [2, 3]: 82.9 ± 1.9 and 73 ± 2.0
- Fluorecence intensity, Tissue, 20 min [2, 3]: 110 ± 2.4 and 120 ± 4.4
- Fluorecence intensity, Tissue, 1 hr [2, 3]: 175.4 ± 3.3 and 127.9 ± 5.5
- Fluorecence intensity, Tissue, 24 hr [2, 3]: 196.4 ± 4.2 and 155 ± 7.1
- Fluorecence intensity, Vessel, 8 min [2, 3]: 72 ± 1.7 and 105 ± 3.1
- Fluorecence intensity, Vessel, 20 min [2, 3]: 90.6 ± 5.8 and 111 ± 2.7
- Fluorecence intensity, Vessel, 1 hr [2, 3]: 97.7 ± 6.2 and 134 ± 10
- Fluorecence intensity, Vessel, 24 hr [2, 3]: 55 ± 3.1 and 78 ± 1.5

Compound: C=Cc1c(C)c2[n]3c1=CC1=NC(=Cc4c(C)c5c([n]4[In]3[Cl])C(=C3N=C(C=2)[C@@H](C)[C@@H]3CCC(=O)OC)CC5=O)C(CC)=C1C [MV6401, indium methyl pyropheophorbide]
- Fluorecence intensity, Tissue, Baseline [2, 4]: 50 ± 1.8
- Fluorecence intensity, Vessel, Baseline [2, 4]: 50 ± 1.6^c
- Fluorecence intensity, Tissue, 10 min [2, 5]: 91.9 ± 4.4
- Fluorecence intensity, Tissue, 1 hr [2, 5]: 121.1 ± 2.2
- Fluorecence intensity, Tissue, 24 hr [2, 5]: 135 ± 6.6
- Fluorecence intensity, Vessel, 10 min [2, 5]: 79.1 ± 1.95
- Fluorecence intensity, Vessel, 1 hr [2, 5]: 83.5 ± 1.9
- Fluorecence intensity, Vessel, 24 hr [2, 5]: 78.9 ± 2.0
- Fluorecence intensity, Tissue, Baseline [2, 6]: 59.5 ± 1.87
- Fluorecence intensity, Vessel, Baseline [2, 6]: 56.6 ± 1.24
- Fluorecence intensity, Tissue, 10 min [2, 7]: 119.7 ± 1.96
- Fluorecence intensity, Tissue, 1 hr [2, 7]: 122.9 ± 2.6
- Fluorecence intensity, Tissue, 24 hr [2, 7]: 156 ± 1.49
- Fluorecence intensity, Vessel, 10 min [2, 7]: 182.9 ± 2.6
- Fluorecence intensity, Vessel, 1 hr [2, 7]: 168.7 ± 2.5
- Fluorecence intensity, Vessel, 24 hr [2, 7]: 46 ± 1.4

Source: patent US20040044304A1, “Local drug delivery using photosensitizer-mediated and electromagnetic radiation enhanced vascular permeability” (priority 2002, published 2004)
